Assay results: PubChem BioAssay (NCI)
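Assay format: 96-well plates, 48-hour exposure. Abbreviation: GI50, concentration required for 50% inhibition of growth. TGI is the concentration that stops growth completely.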

Key:
Experiment in all cases: NCI tumour cell line growth inhibition, 48 h
NCI/ADR-RES ovarian = system: NCI/ADR-RES ovarian
SN12C renal = system: SN12C renal
OVCAR-8 ovarian = system: OVCAR-8 ovarian
A549 NSCLC = system: A549 NSCLC
K-562 leukemia = system: K-562 leukemia
A498 renal = system: A498 renal
TK-10 renal = system: TK-10 renal
SK-MEL-28 melanoma = system: SK-MEL-28 melanoma
BT-549 breast = system: BT-549 breast
NCI-H226 lung = system: NCI-H226 lung
MDA-MB-231 breast = system: MDA-MB-231 breast
SNB-19 CNS = system: SNB-19 CNS
786-0 renal = system: 786-0 renal
IGROV1 ovarian = system: IGROV1 ovarian
M14 melanoma = system: M14 melanoma
HCT-116 colon = system: HCT-116 colon
LOX IMVI melanoma = system: LOX IMVI melanoma
T-47D breast = system: T-47D breast
SNB-75 CNS = system: SNB-75 CNS
UACC-62 melanoma = system: UACC-62 melanoma
CAKI-1 renal = system: CAKI-1 renal
UACC-257 melanoma = system: UACC-257 melanoma
SK-MEL-2 melanoma = system: SK-MEL-2 melanoma
MOLT-4 leukemia = system: MOLT-4 leukemia
SW-620 colon = system: SW-620 colon
SF-539 CNS = system: SF-539 CNS
SK-OV-3 ovarian = system: SK-OV-3 ovarian
MDA-MB-435 = system: MDA-MB-435
HL-60(TB) leukemia = system: HL-60(TB) leukemia
HT29 colon = system: HT29 colon
NCI-H460 lung = system: NCI-H460 lung
SF-295 CNS = system: SF-295 CNS
HS 578T breast = system: HS 578T breast
HOP-92 NSCLC = system: HOP-92 NSCLC
SR leukemia = system: SR leukemia
DU-145 prostate = system: DU-145 prostate
CCRF-CEM leukemia = system: CCRF-CEM leukemia
U251 CNS = system: U251 CNS
MALME-3M melanoma = system: MALME-3M melanoma
MCF7 breast = system: MCF7 breast
EKVX NSCLC = system: EKVX NSCLC
UO-31 renal = system: UO-31 renal
SF-268 CNS = system: SF-268 CNS
OVCAR-3 ovarian = system: OVCAR-3 ovarian
SK-MEL-5 melanoma = system: SK-MEL-5 melanoma
HCT-15 colon = system: HCT-15 colon
RPMI-8226 leukemia = system: RPMI-8226 leukemia
OVCAR-4 ovarian = system: OVCAR-4 ovarian
COLO 205 colon = system: COLO 205 colon
ACHN renal = system: ACHN renal
PC-3 prostate = system: PC-3 prostate
HCC-2998 colon = system: HCC-2998 colon
HOP-62 NSCLC = system: HOP-62 NSCLC
NCI-H522 lung = system: NCI-H522 lung
KM12 colon = system: KM12 colon
NCI-H23 lung = system: NCI-H23 lung
OVCAR-5 ovarian = system: OVCAR-5 ovarian

Structure (SMILES): C[C@]12CC[C@@H]3c4ccc(O)cc4CC[C@H]3[C@@H]1CC(Cc1ccccc1)(Cc1ccccc1)C2=O
- GI50 (NCI/ADR-RES ovarian): 16.5 µM
- TGI (NCI/ADR-RES ovarian): 30.7 µM
- GI50 (SN12C renal): 14.8 µM
- TGI (SN12C renal): 29.2 µM
- GI50 (OVCAR-8 ovarian): 21.5 µM
- TGI (OVCAR-8 ovarian): 61.3 µM
- GI50 (A549 NSCLC): 18.5 µM
- TGI (A549 NSCLC): 48.4 µM
- GI50 (K-562 leukemia): 16.2 µM
- TGI (K-562 leukemia): > 100 µM
- GI50 (A498 renal): 21.3 µM
- TGI (A498 renal): 36.5 µM
- GI50 (TK-10 renal): 19.9 µM
- TGI (TK-10 renal): 43 µM
- GI50 (SK-MEL-28 melanoma): 19.8 µM
- TGI (SK-MEL-28 melanoma): 36.9 µM
- GI50 (BT-549 breast): 18.8 µM
- TGI (BT-549 breast): 38.7 µM
- GI50 (NCI-H226 lung): 16 µM
- TGI (NCI-H226 lung): 31.3 µM
- GI50 (MDA-MB-231 breast): 14.1 µM
- TGI (MDA-MB-231 breast): 28.5 µM
- GI50 (SNB-19 CNS): 18 µM
- TGI (SNB-19 CNS): 34.5 µM
- GI50 (786-0 renal): 13.6 µM
- TGI (786-0 renal): 26.7 µM
- GI50 (IGROV1 ovarian): 20.3 µM
- TGI (IGROV1 ovarian): 41.5 µM
- GI50 (M14 melanoma): 13.1 µM
- TGI (M14 melanoma): 26.2 µM
- GI50 (HCT-116 colon): 8.59 µM
- TGI (HCT-116 colon): 20.7 µM
- GI50 (LOX IMVI melanoma): 12.7 µM
- TGI (LOX IMVI melanoma): 27.2 µM
- GI50 (T-47D breast): 11 µM
- TGI (T-47D breast): 34.6 µM
- GI50 (SNB-75 CNS): 16.7 µM
- TGI (SNB-75 CNS): 34.5 µM
- GI50 (UACC-62 melanoma): 15.1 µM
- TGI (UACC-62 melanoma): 29.3 µM
- GI50 (CAKI-1 renal): 25.6 µM
- TGI (CAKI-1 renal): 45.3 µM
- GI50 (UACC-257 melanoma): 18.4 µM
- TGI (UACC-257 melanoma): 39.5 µM
- GI50 (SK-MEL-2 melanoma): 24.8 µM
- TGI (SK-MEL-2 melanoma): 53.6 µM
- GI50 (MOLT-4 leukemia): 9.11 µM
- TGI (MOLT-4 leukemia): 32.8 µM
- GI50 (SW-620 colon): 14.2 µM
- TGI (SW-620 colon): 30 µM
- GI50 (SF-539 CNS): 18.6 µM
- TGI (SF-539 CNS): 36.8 µM
- GI50 (SK-OV-3 ovarian): 21.2 µM
- TGI (SK-OV-3 ovarian): 37.4 µM
- GI50 (MDA-MB-435): 20.7 µM
- TGI (MDA-MB-435): 57 µM
- GI50 (HL-60(TB) leukemia): 4.75 µM
- TGI (HL-60(TB) leukemia): 20.9 µM
- GI50 (HT29 colon): 6.04 µM
- TGI (HT29 colon): 20.6 µM
- GI50 (NCI-H460 lung): 12.1 µM
- TGI (NCI-H460 lung): 38.1 µM
- GI50 (SF-295 CNS): 21.4 µM
- TGI (SF-295 CNS): 49.1 µM
- GI50 (HS 578T breast): 30.9 µM
- TGI (HS 578T breast): > 100 µM
- GI50 (HOP-92 NSCLC): 2.16 µM
- TGI (HOP-92 NSCLC): 9.77 µM
- GI50 (SR leukemia): 4.87 µM
- TGI (SR leukemia): 36.1 µM
- GI50 (DU-145 prostate): 15.1 µM
- TGI (DU-145 prostate): 30.5 µM
- GI50 (CCRF-CEM leukemia): 14.3 µM
- TGI (CCRF-CEM leukemia): 36.4 µM
- GI50 (U251 CNS): 16 µM
- TGI (U251 CNS): 31.8 µM
- GI50 (MALME-3M melanoma): 23.5 µM
- TGI (MALME-3M melanoma): 48.9 µM
- GI50 (MCF7 breast): 15.6 µM
- TGI (MCF7 breast): 46.8 µM
- GI50 (EKVX NSCLC): 10.9 µM
- TGI (EKVX NSCLC): 24.7 µM
- GI50 (UO-31 renal): 15.8 µM
- TGI (UO-31 renal): 31.3 µM
- GI50 (SF-268 CNS): 21.2 µM
- TGI (SF-268 CNS): 58.3 µM
- GI50 (OVCAR-3 ovarian): 16 µM
- TGI (OVCAR-3 ovarian): 38.3 µM
- GI50 (SK-MEL-5 melanoma): 17.9 µM
- TGI (SK-MEL-5 melanoma): 31.8 µM
- GI50 (HCT-15 colon): 13.9 µM
- TGI (HCT-15 colon): 28.7 µM
- GI50 (RPMI-8226 leukemia): 5.57 µM
- TGI (RPMI-8226 leukemia): 23.5 µM
- GI50 (OVCAR-4 ovarian): 12.7 µM
- TGI (OVCAR-4 ovarian): 27.3 µM
- GI50 (COLO 205 colon): 13.4 µM
- TGI (COLO 205 colon): 31.9 µM
- GI50 (ACHN renal): 14.5 µM
- TGI (ACHN renal): 27.9 µM
- GI50 (PC-3 prostate): 4.11 µM
- TGI (PC-3 prostate): 15.5 µM
- GI50 (HCC-2998 colon): 4.04 µM
- TGI (HCC-2998 colon): 14.2 µM
- GI50 (HOP-62 NSCLC): 17.7 µM
- TGI (HOP-62 NSCLC): 32.9 µM
- GI50 (NCI-H522 lung): 16.6 µM
- TGI (NCI-H522 lung): 36.3 µM
- GI50 (KM12 colon): 11.5 µM
- TGI (KM12 colon): 38 µM
- GI50 (NCI-H23 lung): 14.3 µM
- TGI (NCI-H23 lung): 28.2 µM
- GI50 (OVCAR-5 ovarian): 17.2 µM
- TGI (OVCAR-5 ovarian): 31.5 µM
